Several values for one entry are separate records, joined by “and”; a condition that tells them apart may be missing. Equal entries are not always repeated.
Settings: transient hot wire

O=C(C(F)(F)C(F)(F)F)C(F)(C(F)(F)F)C(F)(F)F [dodecafluoro-2-methylpentan-3-one]
Settings	thermal conductivity
331.38 K, 45565 kPa, Liquid	0.06924 W/m/K
331.38 K, 45571 kPa, Liquid	0.06916 W/m/K
331.39 K, 36560 kPa, Liquid	0.06692 W/m/K
331.4 K, 36561 kPa, Liquid	0.0672 W/m/K
331.51 K, 102 kPa, Gas	0.01402 W/m/K
331.54 K, 107 kPa, Gas	0.01383 W/m/K
331.55 K, 3950 kPa, Liquid	0.05388 W/m/K
331.55 K, 3951 kPa, Liquid	0.05379 W/m/K
331.56 K, 72 kPa, Gas	0.01361 W/m/K
331.58 K, 74 kPa, Gas	0.01363 W/m/K
331.64 K, 28068 kPa, Liquid	0.06457 W/m/K
331.64 K, 28075 kPa, Liquid	0.06383 W/m/K
331.67 K, 20446 kPa, Liquid	0.06141 W/m/K
331.67 K, 20447 kPa, Liquid	0.06118 W/m/K
331.7 K, 14109 kPa, Liquid	0.0585 W/m/K
331.71 K, 14116 kPa, Liquid	0.05838 W/m/K
331.75 K, 8577 kPa, Liquid	0.05613 W/m/K
331.75 K, 69214 kPa, Liquid	0.07577 W/m/K
331.76 K, 8578 kPa, Liquid	0.0562 W/m/K
331.76 K, 69231 kPa, Liquid	0.07536 W/m/K
331.77 K, 57729 kPa, Liquid	0.0724 W/m/K
331.77 K, 57733 kPa, Liquid	0.07259 W/m/K
331.79 K, 239 kPa, Liquid	0.05138 W/m/K
331.79 K, 45573 kPa, Liquid	0.06907 W/m/K
331.8 K, 242 kPa, Liquid	0.05139 W/m/K
331.8 K, 45574 kPa, Liquid	0.06925 W/m/K
331.81 K, 102 kPa, Gas	0.01364 W/m/K
331.83 K, 106 kPa, Gas	0.01386 W/m/K
331.83 K, 36555 kPa, Liquid	0.06649 W/m/K
331.83 K, 36558 kPa, Liquid	0.06686 W/m/K
331.84 K, 107 kPa, Liquid	0.05166 W/m/K and 0.05159 W/m/K
331.86 K, 71 kPa, Gas	0.01366 W/m/K
331.89 K, 74 kPa, Gas	0.01368 W/m/K
332.07 K, 3947 kPa, Liquid	0.05394 W/m/K
332.08 K, 3946 kPa, Liquid	0.05395 W/m/K
332.12 K, 28065 kPa, Liquid	0.06395 W/m/K
332.12 K, 28069 kPa, Liquid	0.06418 W/m/K
332.14 K, 107 kPa, Gas	0.01388 W/m/K
332.18 K, 20442 kPa, Liquid	0.0612 W/m/K and 0.06122 W/m/K
332.19 K, 71 kPa, Gas	0.0138 W/m/K
332.19 K, 69215 kPa, Liquid	0.07588 W/m/K
332.19 K, 69218 kPa, Liquid	0.07551 W/m/K
332.22 K, 57721 kPa, Liquid	0.07263 W/m/K
332.22 K, 57724 kPa, Liquid	0.07259 W/m/K
332.23 K, 74 kPa, Gas	0.01373 W/m/K
332.23 K, 14110 kPa, Liquid	0.05828 W/m/K
332.23 K, 14111 kPa, Liquid	0.05807 W/m/K
332.27 K, 45566 kPa, Liquid	0.06911 W/m/K
332.28 K, 45563 kPa, Liquid	0.06904 W/m/K
332.3 K, 8573 kPa, Liquid	0.0558 W/m/K
332.3 K, 8574 kPa, Liquid	0.05582 W/m/K
332.32 K, 36553 kPa, Liquid	0.06631 W/m/K
332.33 K, 36552 kPa, Liquid	0.06642 W/m/K
332.35 K, 238 kPa, Liquid	0.05149 W/m/K
332.35 K, 239 kPa, Liquid	0.05131 W/m/K
332.38 K, 108 kPa, Liquid	0.05165 W/m/K
332.39 K, 107 kPa, Liquid	0.05161 W/m/K
332.47 K, 102 kPa, Gas	0.01373 W/m/K
332.56 K, 71 kPa, Gas	0.01389 W/m/K
332.59 K, 73 kPa, Gas	0.01379 W/m/K
332.65 K, 28066 kPa, Liquid	0.0639 W/m/K
332.66 K, 28069 kPa, Liquid	0.06388 W/m/K
332.68 K, 3944 kPa, Liquid	0.05341 W/m/K
332.68 K, 3949 kPa, Liquid	0.05349 W/m/K
332.68 K, 69200 kPa, Liquid	0.07562 W/m/K
332.69 K, 69200 kPa, Liquid	0.07558 W/m/K
332.73 K, 20437 kPa, Liquid	0.06118 W/m/K
332.73 K, 57710 kPa, Liquid	0.07255 W/m/K
332.73 K, 57718 kPa, Liquid	0.07251 W/m/K
332.74 K, 20439 kPa, Liquid	0.06126 W/m/K
332.8 K, 45557 kPa, Liquid	0.06917 W/m/K
332.81 K, 45558 kPa, Liquid	0.06905 W/m/K
332.82 K, 14107 kPa, Liquid	0.05846 W/m/K
332.83 K, 102 kPa, Gas	0.01371 W/m/K
332.83 K, 14108 kPa, Liquid	0.05829 W/m/K
332.85 K, 107 kPa, Gas	0.01391 W/m/K
332.87 K, 36553 kPa, Liquid	0.06645 W/m/K
332.87 K, 36556 kPa, Liquid	0.06639 W/m/K
332.91 K, 8572 kPa, Liquid	0.05573 W/m/K
332.91 K, 8573 kPa, Liquid	0.05574 W/m/K
332.94 K, 70 kPa, Gas	0.01377 W/m/K
332.97 K, 73 kPa, Gas	0.01383 W/m/K
332.97 K, 230 kPa, Liquid	0.05124 W/m/K
332.98 K, 237 kPa, Liquid	0.05109 W/m/K

— the NIST ThermoML archive (doi:10.1021/acs.jced.8b00132)
